≈ marks a conversion by molar mass, not a printed value.

The subject of assay [1] is Mycobacterium tuberculosis. In words: Antitubercular activity against Mycobacterium tuberculosis H37Rv ATCC27294 assessed as complete cessation of growth. Type of assay: functional. As to conditions: H37Rv ATCC 27294.
Assay [2] can be described thus: Cytotoxicity against mouse macrophage cell line J774.1 (ATCC TIB-67) for 3 days by Alamar Blue. It is filed as cell-based. As to conditions: 72 h.

Turning to `O=C(Nc1cc(C(F)(F)F)cc(C(F)(F)F)c1)c1cccc(Cl)c1`, the MIC in assay [1] was more than 50 µM. The compound also registered an IC50 in assay [2] of more than 60 µM.
The corresponding values for `O=C(Nc1cc(C(F)(F)F)cc(C(F)(F)F)c1)c1cc(-n2cccc2)ccc1O` are 3.1 µM (≈ 1.28 µg/mL) and 3.1 µM.
The matching figures for `Cc1ccc(O)c(C(=O)Nc2cc(C(F)(F)F)cc(C(F)(F)F)c2)c1`: 6.3 µM (≈ 2.29 µg/mL) and 5.4 µM.
The corresponding values for `O=C(Nc1cc(C(F)(F)F)cc(C(F)(F)F)c1)c1cc(F)ccc1O` are 3.1 µM (≈ 1.14 µg/mL) and 2.5 µM.
Turning to `O=C(Nc1cc(C(F)(F)F)cc(C(F)(F)F)c1)c1cc(Br)ccc1O`, in assay [1], the MIC was found to be 6.3 µM (≈ 2.7 µg/mL). In assay [2], half-maximal inhibition (IC50) required 4.9 µM.
In the case of `O=C(Nc1cc(C(F)(F)F)cc(C(F)(F)F)c1)c1cc(I)ccc1O`, the MIC in assay [1] turned out to be 6.3 µM (≈ 2.99 µg/mL). The IC50 in assay [2] worked out at 5.6 µM.
The corresponding values for `COc1ccc(O)c(C(=O)Nc2cc(C(F)(F)F)cc(C(F)(F)F)c2)c1` are 6.3 µM (≈ 2.39 µg/mL) and 7.7 µM.
With `O=C(Nc1cc(C(F)(F)F)cc(C(F)(F)F)c1)c1cc(Cl)cc(Cl)c1O`, the MIC in assay [1] was 13 µM (≈ 5.44 µg/mL). The same compound returned an IC50 in assay [2] of more than 60 µM.
The matching figures for `O=C(Nc1cc(C(F)(F)F)cc(C(F)(F)F)c1)c1cccc(O)c1O`: more than 50 µM and 1.7 µM.
The corresponding values for `O=C(Nc1cc(C(F)(F)F)cc(C(F)(F)F)c1)c1cc([N+](=O)[O-])ccc1O` are not below 50 µM and more than 60 µM.
Take `CC(=O)Oc1ccc(Cl)cc1C(=O)Nc1cc(C(F)(F)F)cc(C(F)(F)F)c1`: the MIC in assay [1] stood at 1.6 µM (≈ 0.681 µg/mL). The compound further displayed an IC50 in assay [2] of more than 60 µM.
As to `COc1ccc(Cl)cc1C(=O)Nc1cc(C(F)(F)F)cc(C(F)(F)F)c1`, the MIC in assay [1] is more than 50 µM. This compound registered an IC50 in assay [2] of more than 60 µM.
The corresponding values for `O=C(Nc1cc(C(F)(F)F)cc(C(F)(F)F)c1)c1cc(Cl)ccc1OCc1ccccc1` are more than 50 µM and more than 60 µM.
Take `Nc1ccc(Cl)cc1C(=O)Nc1cc(C(F)(F)F)cc(C(F)(F)F)c1`: the MIC in assay [1] is more than 50 µM. Further, the IC50 in assay [2] was more than 60 µM.
Turning to `O=C(Nc1cc(C(F)(F)F)cc(C(F)(F)F)c1)c1ccccc1Cl`, in assay [1], the MIC is more than 50 µM. Moreover, the IC50 in assay [2] was more than 1.7 µM.
On to `O=C(Nc1cc(C(F)(F)F)cc(C(F)(F)F)c1)c1ccccc1O`, for which, in assay [1], the MIC was 6.3 µM (≈ 2.2 µg/mL). For the same compound, inhibition in assay [2] was half-maximal at 12 µM (IC50).
Turning to `O=C(Nc1cc(C(F)(F)F)cc(C(F)(F)F)c1)c1cc(Cl)ccc1O` [IMD-0354], the MIC in assay [1] worked out at 3.1 µM (≈ 1.19 µg/mL). The IC50 in assay [2] worked out at 5.2 µM.

The values are drawn from ChEMBL document CHEMBL2311418, “Structure-activity relationships of antitubercular salicylanilides consistent with disruption of the proton gradient via proton shuttling” (Bioorg Med Chem, 2013).
